Here are results for five compounds from the Kinase Knowledgebase extract (Sharma et al. 2016).

The term pIC50 denotes −log10 of the IC50, conventionally taken in molar units.

Molecules are shown by their SMILES. pIC50: −log10 of the molar value. Bounds are passed on as bounds.

In assay [1] the test system is EGFR (human), P00533 [S752-I759del]. Conditions: 10.0 µM.
Assay [2] concerns EGFR (human), P00533 [L747-S752del, P753S]. Conditions: 10.0 µM.
Assay [3] has as its system EGFR (human), P00533 [G719C]. Conditions: 10.0 µM.
Assay [4] concerns PIK3CA (human), P42336 [H1047L]. The experiment in a line: Enzyme Assay. To be noted: 10.0 µM.
Chain of PIK3CA (human), P42336 [H1047L] (P42336 whole entry H1047L, looked up): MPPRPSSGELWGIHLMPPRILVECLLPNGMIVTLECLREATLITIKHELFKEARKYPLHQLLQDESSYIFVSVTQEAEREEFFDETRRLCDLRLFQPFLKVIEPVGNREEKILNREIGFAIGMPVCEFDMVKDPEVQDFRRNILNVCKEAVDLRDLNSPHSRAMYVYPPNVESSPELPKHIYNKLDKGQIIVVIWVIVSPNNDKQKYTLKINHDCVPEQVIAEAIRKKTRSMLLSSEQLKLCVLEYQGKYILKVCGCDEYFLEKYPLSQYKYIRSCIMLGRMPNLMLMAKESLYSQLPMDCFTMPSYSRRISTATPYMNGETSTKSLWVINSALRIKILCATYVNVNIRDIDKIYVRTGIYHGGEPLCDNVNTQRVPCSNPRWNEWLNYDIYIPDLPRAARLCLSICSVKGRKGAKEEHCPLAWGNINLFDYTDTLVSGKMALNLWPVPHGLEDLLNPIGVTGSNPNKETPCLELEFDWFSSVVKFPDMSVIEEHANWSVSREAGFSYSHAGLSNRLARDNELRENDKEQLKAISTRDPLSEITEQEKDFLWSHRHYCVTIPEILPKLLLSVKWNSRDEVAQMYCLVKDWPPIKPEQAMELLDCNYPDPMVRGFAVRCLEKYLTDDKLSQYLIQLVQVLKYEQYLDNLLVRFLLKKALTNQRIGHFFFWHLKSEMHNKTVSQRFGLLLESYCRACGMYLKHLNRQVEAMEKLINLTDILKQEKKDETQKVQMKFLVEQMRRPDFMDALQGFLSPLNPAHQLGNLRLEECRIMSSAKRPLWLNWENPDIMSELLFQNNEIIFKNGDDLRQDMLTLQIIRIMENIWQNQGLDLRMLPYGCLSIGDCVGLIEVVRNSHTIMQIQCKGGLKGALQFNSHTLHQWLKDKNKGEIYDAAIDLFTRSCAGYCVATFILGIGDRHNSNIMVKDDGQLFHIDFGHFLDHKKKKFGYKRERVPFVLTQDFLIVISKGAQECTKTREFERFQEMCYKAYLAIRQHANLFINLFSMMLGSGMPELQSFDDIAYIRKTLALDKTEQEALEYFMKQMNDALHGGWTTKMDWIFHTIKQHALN
Assay [5] concerns PIK3CA (human), P42336 [E545K]. The assay can be described thus: Enzyme Assay. To be noted: 10.0 µM.
Chain of PIK3CA (human), P42336 [E545K] (P42336 whole entry E545K, looked up): as the sequence (P42336 whole entry H1047L, looked up) above, with E545K, L1047H counted along it
The target of another assay is PIK3CA (human) (UniProt P42336). The experiment in a line: Enzyme Assay. Conditions: 10.0 µM.
Chain of PIK3CA (human) (P42336 whole entry, looked up): as the sequence (P42336 whole entry H1047L, looked up) above, with L1047H counted along it
A further assay has as its target PIK3CB (Human) (UniProt P42338). The experiment in a line: Enzyme Assay. To be noted: 10.0 µM.
Assay [6] concerns PIK3CA (human), P42336 [I800L]. The experiment in a line: Enzyme Assay. To be noted: 10.0 µM.
Chain of PIK3CA (human), P42336 [I800L] (P42336 whole entry I800L, looked up): as the sequence (P42336 whole entry H1047L, looked up) above, with I800L, L1047H counted along it
Assay [7] concerns PIK3CA (human), P42336 [E545A]. The experiment in a line: Enzyme Assay. Conditions: 10.0 µM.
Chain of PIK3CA (human), P42336 [E545A] (P42336 whole entry E545A, looked up): as the sequence (P42336 whole entry H1047L, looked up) above, with E545A, L1047H counted along it
Another assay addresses ROCK2 (human) (UniProt O75116). The experiment in a line: Enzyme Assay. To be noted: 10.0 µM.
A further assay deals with CDK2 (human) (UniProt P24941). The experiment in a line: Enzyme Assay. Conditions: for activity: 10.0 µM.
Assay [8] concerns PIK3CA (human), P42336 [M1043I]. The assay can be described thus: Enzyme Assay. To be noted: 10.0 µM.
Chain of PIK3CA (human), P42336 [M1043I] (P42336 whole entry M1043I, looked up): as the sequence (P42336 whole entry H1047L, looked up) above, with M1043I, L1047H counted along it
In assay [9] the test system is PIK3CA (human), P42336 [H1047Y]. The assay can be described thus: Enzyme Assay. To be noted: 10.0 µM.
Chain of PIK3CA (human), P42336 [H1047Y] (P42336 whole entry H1047Y, looked up): as the sequence (P42336 whole entry H1047L, looked up) above, with L1047Y counted along it
In assay [10] the test system is PIK3CA (human), P42336 [Q546K]. The experiment in a line: Enzyme Assay. Conditions: 10.0 µM.
Chain of PIK3CA (human), P42336 [Q546K] (P42336 whole entry Q546K, looked up): as the sequence (P42336 whole entry H1047L, looked up) above, with Q546K, L1047H counted along it
The target of a further assay is PIK3CG (human) (UniProt P48736). The experiment in a line: Enzyme Assay. To be noted: 10.0 µM.
Chain of PIK3CG (human) (P48736 whole entry, looked up): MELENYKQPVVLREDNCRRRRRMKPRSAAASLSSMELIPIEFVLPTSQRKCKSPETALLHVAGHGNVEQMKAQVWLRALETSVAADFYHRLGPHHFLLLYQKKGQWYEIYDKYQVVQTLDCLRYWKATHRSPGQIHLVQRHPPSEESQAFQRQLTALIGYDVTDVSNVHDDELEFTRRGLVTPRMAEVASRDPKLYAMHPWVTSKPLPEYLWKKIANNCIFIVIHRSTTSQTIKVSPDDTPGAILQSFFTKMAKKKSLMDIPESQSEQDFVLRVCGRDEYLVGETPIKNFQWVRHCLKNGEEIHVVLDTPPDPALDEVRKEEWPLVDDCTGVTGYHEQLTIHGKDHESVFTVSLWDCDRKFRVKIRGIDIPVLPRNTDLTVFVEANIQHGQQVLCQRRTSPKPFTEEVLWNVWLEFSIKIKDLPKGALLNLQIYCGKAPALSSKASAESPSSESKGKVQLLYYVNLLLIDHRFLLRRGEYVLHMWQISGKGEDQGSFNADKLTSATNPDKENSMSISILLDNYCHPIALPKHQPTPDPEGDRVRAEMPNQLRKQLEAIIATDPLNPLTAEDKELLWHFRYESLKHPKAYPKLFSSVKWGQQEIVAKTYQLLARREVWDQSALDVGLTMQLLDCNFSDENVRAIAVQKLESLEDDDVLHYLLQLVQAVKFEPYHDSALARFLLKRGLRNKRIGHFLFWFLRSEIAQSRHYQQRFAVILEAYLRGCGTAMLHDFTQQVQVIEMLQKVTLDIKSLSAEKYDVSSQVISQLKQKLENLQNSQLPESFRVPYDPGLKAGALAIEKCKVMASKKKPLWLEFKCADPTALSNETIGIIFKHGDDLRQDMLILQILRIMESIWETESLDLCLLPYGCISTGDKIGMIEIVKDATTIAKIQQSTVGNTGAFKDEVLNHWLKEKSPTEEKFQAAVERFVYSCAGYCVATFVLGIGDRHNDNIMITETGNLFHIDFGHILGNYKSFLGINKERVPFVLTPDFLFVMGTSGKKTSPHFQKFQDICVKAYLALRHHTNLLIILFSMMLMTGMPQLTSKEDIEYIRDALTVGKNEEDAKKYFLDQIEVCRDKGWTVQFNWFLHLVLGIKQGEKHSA
The test system of assay [11] is PIK3CA (human), P42336 [E542K]. The assay can be described thus: Enzyme Assay. Conditions: 10.0 µM.
Chain of PIK3CA (human), P42336 [E542K] (P42336 whole entry E542K, looked up): as the sequence (P42336 whole entry H1047L, looked up) above, with E542K, L1047H counted along it
Assay [12] concerns PIK3CA (human), P42336 [C420R]. The assay can be described thus: Enzyme Assay. To be noted: 10.0 µM.
Chain of PIK3CA (human), P42336 [C420R] (P42336 whole entry C420R, looked up): as the sequence (P42336 whole entry H1047L, looked up) above, with C420R, L1047H counted along it
In the next assay the target is MAPK14 (human) (UniProt Q16539). The experiment in a line: Enzyme Assay. Conditions: for activity: 10.0 µM.
Chain of MAPK14 (human) (Q16539 whole entry, looked up): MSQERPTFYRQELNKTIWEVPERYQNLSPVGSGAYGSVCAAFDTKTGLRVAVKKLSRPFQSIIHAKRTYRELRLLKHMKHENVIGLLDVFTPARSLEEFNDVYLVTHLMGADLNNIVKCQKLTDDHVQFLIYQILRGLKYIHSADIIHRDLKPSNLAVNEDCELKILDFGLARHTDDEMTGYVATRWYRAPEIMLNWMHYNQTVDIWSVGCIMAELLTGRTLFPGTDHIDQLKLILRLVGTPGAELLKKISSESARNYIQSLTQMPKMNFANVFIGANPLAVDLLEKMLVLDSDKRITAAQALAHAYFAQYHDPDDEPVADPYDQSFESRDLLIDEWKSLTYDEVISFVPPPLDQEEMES
A further assay concerns the target PIK3CD (Human) (UniProt O00329). The assay can be described thus: Enzyme Assay. To be noted: 10.0 µM.
The test system of assay [13] is EGFR (human), P00533 [T790M]. To be noted: 10.0 µM.
The subject of assay [14] is EGFR (human), P00533 [L747-E749del, A750P]. To be noted: 10.0 µM.
For assay [15], the system named is EGFR (human), P00533 [L858R]. To be noted: 10.0 µM.
For assay [16], the system named is EGFR (human), P00533 [G719S]. To be noted: 10.0 µM.
Assay [17] relates to EGFR (human), P00533 [L861Q]. Conditions: 10.0 µM.
In assay [18] the test system is EGFR (human), P00533 [E746-A750del]. Conditions: 10.0 µM.
Assay [19] concerns EGFR (Human), P00533 [T790M/L858R]. Conditions: 10.0 µM.
For assay [20], the system named is EGFR (human), P00533 [L747-T751del,Sins]. To be noted: 10.0 µM.
For another assay, the target named is EGFR (human) (UniProt P00533). To be noted: for activity: 10.0 µM.

Chain of ROCK2 (human) (O75116 whole entry, looked up): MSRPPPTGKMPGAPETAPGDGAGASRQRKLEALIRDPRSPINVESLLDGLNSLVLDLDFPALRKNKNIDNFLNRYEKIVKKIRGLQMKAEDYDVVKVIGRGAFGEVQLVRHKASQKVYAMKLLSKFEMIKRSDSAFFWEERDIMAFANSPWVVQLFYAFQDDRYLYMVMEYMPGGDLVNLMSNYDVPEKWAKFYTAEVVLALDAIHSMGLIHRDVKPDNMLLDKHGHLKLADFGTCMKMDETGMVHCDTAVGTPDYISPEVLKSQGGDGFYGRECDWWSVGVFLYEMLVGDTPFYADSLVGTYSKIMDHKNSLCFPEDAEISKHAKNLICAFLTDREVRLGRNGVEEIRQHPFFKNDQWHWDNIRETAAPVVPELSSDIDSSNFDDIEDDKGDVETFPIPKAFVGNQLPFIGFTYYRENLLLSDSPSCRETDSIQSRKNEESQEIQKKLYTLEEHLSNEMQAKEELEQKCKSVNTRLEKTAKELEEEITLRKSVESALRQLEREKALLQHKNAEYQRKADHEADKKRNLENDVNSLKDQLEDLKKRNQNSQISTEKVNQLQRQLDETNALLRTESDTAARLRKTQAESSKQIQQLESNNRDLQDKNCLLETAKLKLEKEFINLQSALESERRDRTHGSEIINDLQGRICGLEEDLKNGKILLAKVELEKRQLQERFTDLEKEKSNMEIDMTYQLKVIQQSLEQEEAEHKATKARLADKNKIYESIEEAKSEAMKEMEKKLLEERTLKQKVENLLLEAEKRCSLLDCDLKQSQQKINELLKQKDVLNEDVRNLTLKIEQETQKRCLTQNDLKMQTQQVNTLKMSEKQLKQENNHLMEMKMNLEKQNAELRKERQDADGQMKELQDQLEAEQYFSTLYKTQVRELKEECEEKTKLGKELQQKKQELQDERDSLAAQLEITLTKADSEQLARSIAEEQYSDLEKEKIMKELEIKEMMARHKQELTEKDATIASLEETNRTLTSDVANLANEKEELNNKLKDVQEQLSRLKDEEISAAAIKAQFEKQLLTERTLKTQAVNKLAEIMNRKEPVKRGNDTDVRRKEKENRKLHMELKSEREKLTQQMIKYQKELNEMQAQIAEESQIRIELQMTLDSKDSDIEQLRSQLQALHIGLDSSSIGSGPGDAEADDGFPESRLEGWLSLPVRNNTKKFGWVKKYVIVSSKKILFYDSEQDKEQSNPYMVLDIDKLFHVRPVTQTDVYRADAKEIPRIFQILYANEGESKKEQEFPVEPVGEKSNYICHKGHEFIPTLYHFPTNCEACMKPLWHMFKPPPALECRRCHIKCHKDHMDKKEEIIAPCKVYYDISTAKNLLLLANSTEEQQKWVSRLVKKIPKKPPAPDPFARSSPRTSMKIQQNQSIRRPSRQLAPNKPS

As for `Cc1ccc(NC(=O)c2cccc(C(C)(C)C#N)c2)cc1Nc1ccc2ncn(C)c(=O)c2c1`, the activity came to 17% in assay [1]; 19% in assay [2]; 49% in assay [3]; 100% in [4]; 100% in [5]; 100% on PIK3CA (human). Also, the activity turned out to be 100% at PIK3CB (Human); 100% in assay [6]; 89% in [7]; 80% on ROCK2 (human); 100% on CDK2 (human); 89% in assay [8]. Besides, the activity in [9] turned out to be 100%; in assay [10], 88%; at PIK3CG (human), 99%; in assay [11] it was 100%; in [12], 100%; on MAPK14 (human), 0%. Moreover, the activity at PIK3CD (Human) came out at 99%; in assay [13], 79%; in assay [14], 11%; in [15], 48%; in assay [16], 37%; in assay [17], 34%. The activity in assay [18] came to 15%; in assay [19], 99%; in [20], 14%; on EGFR (human) it was 37%.

With `O=C(Nc1ccc(OC(F)(F)F)cc1)c1sccc1NCc1ccnc2ccccc12`, the pIC50 against CDK2 (human) and against EGFR (human) was below 5.00 each time.

In turn, `Cc1ccc(C(=O)Nc2cccc(C(F)(F)F)c2)cc1Nc1nc(-c2cccnc2)nc2c1cnn2C` had a pIC50 against EGFR (human) below 5.00.

In turn, `Cc1csc(-c2nnc(Nc3ccc(Oc4ncccc4-c4ccnc(N)n4)cc3)c3ccccc23)c1` showed a pIC50 at MAPK14 (human) of 7.28.

As to `COc1cc2c(Nc3ccc(NC(=O)c4ccccc4)cc3)ncnc2cc1OCCCN1CCOCC1`, the activity in assay [1] was found to be 14%; in assay [2], 41%; in assay [3], 0%; in assay [4], 99%; in assay [5], 98%; on PIK3CA (human) it was 100%. Also, the activity on PIK3CB (Human) was found to be 81%; in assay [6] it was 100%; in assay [7] it was 19%; on ROCK2 (human), 34%; on CDK2 (human), 82%; in assay [8], 99%. Moreover, the activity came to 24% in [9]; 17% in assay [10]; 100% at PIK3CG (human); 100% in assay [11]; 68% in assay [12]; 100% at MAPK14 (human). Moreover, the activity at PIK3CD (Human) came out at 100%; in assay [13] it was 42%; in assay [14] it was 22%; in assay [15] it was 8%; in assay [16] it was 0%; in assay [17], 6%. The activity came to 36% in assay [18], 85% in [19], 26% in [20] and 0% at EGFR (human).
